From patent US6166036A, “Lp(a)-lowering agent and apolipoprotein (a) formation suppressing agent” (Taiho Pharmaceutical Co., Ltd., priority 1998, dated 2000)

How the values were obtained:
apo(a) gene = experiment: Test on suppression of apo(a) gene expression (luciferase assay in HepG2 cells); type: cell-based, human; conditions: final concentration of 2 μM, 48 hours; for inhibition at 2 µM: Homo sapiens, relative to DMSO control group, read-out: Expression ratio (%) of apo(a) gene; for effect on expression of apo(a) gene (in words): conclusion from Table 5
Protocol: This test was carried out in accordance with the method described in "BIOCHEMICAL AND BIOPHYSICAL RESEARCH COMMUNICATIONS 227, 570-575[…] ARTICLE No. 1547". Described specifically, 2 μg/mL of an apo(a) gene (1441 base pairs) separated from the blood of normal volunteers was introduced into HepG2 cells (2×10^5 cells/mL), followed by culturing for 16 hours. Compound 4 was dissolved in DMSO (dimethylsulfoxide) to give a final concentration of 2 μM, to which the cultured cells were added. After culturing for further 48 hours, the expression of an apo(a) gene was measured regarding it as luciferases reaction and therefore, using luciferases assay system (Picagene) of Toyo Ink Mfg. Co., Ltd. for the analysis of gene expression. Namely, the cultured HepG2 cells were dissolved in a liquid to dissolve them therein. The resulting solution was centrifuged to obtain a supernatant. To 200 μl of the resulting supernatant was added 100 μl of a […] substrate, followed by mixing for 15 seconds. The luminescence was measured by a chemo-bioluminescence measuring device (Luminoscan RS) of Dainippon Pharmaceutical Co., Ltd. and expression ratio of an apo(a) gene was determined. The expression ratio of an apo(a) gene was calculated from the ratio to the luminescence of a group (control group) to which the same amount of DMSO had been added. As comparative compounds, pravastatin (HMG-COA reductase inhibitor, sterol synthesis inhibitor) and bezafibrate (fibrate series medicament, antihyperlipoproteinemic) were treated in a similar manner and provided for the test.

Lp(a) = experiment: A test on lowering of the Lp(a) level in crab-eating monkeys; type: in vivo, crab-eating monkey; conditions: oral 30 mg/kg, three weeks; for Changing ratio (%) of Lp(a): male, 5 per group, Lp(a) level in blood, average value; for effect on Lp(a) level (in words): conclusion from Table 6
Protocol: Crab-eating monkeys (male, 2.4 to 3.9 kg in weight) were reared in groups, each group consisting of 5 monkeys. Compound 4 was suspended in a 0.5%, HPMC (hydroxypropylmethyl cellulose) solution in an amount of 30 mg/5 mL, whereby the test compound was prepared. To the specimen-administered group, the test compound was orally administered at a dose of 30 mg/kg. At the starting time of administration and three weeks after administration, the Lp(a) level in the blood of the tested animals was measured. For the measurement, a kit ("Immunosearch Lp(a) TIA") commercially available from Cosmo Bio Co., Ltd. was employed. Namely, according to the procedure as indicated in the kit, the measurement was carried out by adding 256 μl of a phosphate buffer to 7 μl of the serum and then adding the goat anti-human Lp(a) serum to the resulting mixture. For the measurement, a biochemical automatic analyzer ("Hitachi 7170"; product of Hitachi Ltd.) was employed. As a comparative compound, pravastatin and bezafibrate were treated similarly and provided for the test. From the measuring results, a changing ratio (%) of the Lp(a) level at the starting time of administration relative to that three weeks after the administration was determined with regards to each of the monkeys and the average value was expressed as an Lp(a) lowering ratio.

beagles = experiment: Acute toxicity test in beagles; type: in vivo, beagle dog; conditions: 7-month old male beagles, 2 per group, fasted 16 hours; oral 2000 mg/kg in 0.5% HPMC
Protocol: After 7-month old beagles (male, each group consisting of 2 beagles) were fasted for 16 hours, Compound 4 suspended in a 0.5%, HPMC solution was orally administered at a dose of 2000 mg/kg.

| SMILES | inhibition at 2 µM (apo(a) gene) | effect on expression of apo(a) gene (in words) (apo(a) gene) | Changing ratio (%) of Lp(a) (Lp(a)) | effect on Lp(a) level (in words) (Lp(a)) | death cases (beagles) | serious side effects (beagles) |
| --- | --- | --- | --- | --- | --- | --- |
| CC(C)(C)c1ccc(N2C[C@@H](COc3ccc(C(=O)O)cc3)CC2=O)cc1 [Compound 4, (S)-(+)-4-[1-(4-tert-butylphenyl)-2-pyrrolidon-4-yl]methoxybenzoic acid] | 24% | exhibited excellent effects for suppressing the expression of an apo(a) gene | -33% | exhibited excellent Lp(a) lowering effects | neither death case | nor serious side effects were recognized |
| CC(C)(Oc1ccc(CCNC(=O)c2ccc(Cl)cc2)cc1)C(=O)O [Bezafibrate, bezafibrate] | -3% | reinforced the expression of the apo(a) gene | +8% | increased the Lp(a) level | – | – |
| CC[C@H](C)C(=O)O[C@H]1C[C@H](O)C=C2C=C[C@H](C)[C@H](CC[C@@H](O)C[C@@H](O)CC(=O)O)[C@H]21 [Pravastatin, pravastatin] | -27% | reinforced the expression of the apo(a) gene | +35% | increased the Lp(a) level | – | – |
